Inhibition and IC50 data for 75 compounds are collected here from ChEMBL document CHEMBL4004862, “Discovery of novel CDK8 inhibitors using multiple crystal structures in docking-based virtual screening” (Eur J Med Chem, 2017).

CDK8/Cyclin C, sequence (P49336 whole entry): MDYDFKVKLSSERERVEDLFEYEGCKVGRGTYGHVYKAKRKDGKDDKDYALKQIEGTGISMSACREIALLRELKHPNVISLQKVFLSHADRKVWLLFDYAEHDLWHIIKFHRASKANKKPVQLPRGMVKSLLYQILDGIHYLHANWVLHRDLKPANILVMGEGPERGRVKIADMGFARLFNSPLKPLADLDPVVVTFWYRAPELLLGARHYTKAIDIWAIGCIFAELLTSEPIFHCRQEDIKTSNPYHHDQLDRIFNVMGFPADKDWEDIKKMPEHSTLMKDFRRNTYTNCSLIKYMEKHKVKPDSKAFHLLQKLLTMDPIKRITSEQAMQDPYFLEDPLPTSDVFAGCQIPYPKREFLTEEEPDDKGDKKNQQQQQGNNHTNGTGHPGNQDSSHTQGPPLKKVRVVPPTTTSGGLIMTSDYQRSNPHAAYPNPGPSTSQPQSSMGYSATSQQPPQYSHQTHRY
CDK8/Cyclin C, sequence (P24863 whole entry, further chain): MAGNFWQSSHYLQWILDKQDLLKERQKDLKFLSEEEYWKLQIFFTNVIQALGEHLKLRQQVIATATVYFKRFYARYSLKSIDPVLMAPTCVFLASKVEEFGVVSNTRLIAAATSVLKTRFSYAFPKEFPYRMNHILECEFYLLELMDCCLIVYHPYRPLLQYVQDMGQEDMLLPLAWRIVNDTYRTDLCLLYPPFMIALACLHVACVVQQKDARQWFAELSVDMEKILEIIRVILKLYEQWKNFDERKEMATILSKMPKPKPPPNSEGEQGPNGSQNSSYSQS

The first assay concerns the target T1, CDK8/Cyclin C (Homo sapiens) (UniProt P49336+P24863). The experiment in a line: Inhibition of Alexa647 tracer binding to full length recombinant human His-tagged CDK8/Cyclin C expressed in baculovirus expression system at 0.5 uM preincubated for 20 mins followed by tracer addition measured after 60 mins by TR-FRET based Lanthascreen assay relative to control. Background: TR-FRET usually uses a lanthanide donor and a delayed reading to cut background.
As a reminder, the inhibition is the relative decrease from the control value, in per cent. With `COc1ccc(CC(=O)N2CCN(c3ccc(NC(=O)Nc4cccc(C(F)(F)F)c4)cc3)CC2)cc1`, the inhibition was 95%.
Same read-out and setting: then `O=C(NCC1CCN(c2nsc(Cc3ccc(F)cc3)n2)CC1)Nc1ccc(Cl)c(Cl)c1`, with 101%.
On the same count and under the same terms, then `Cc1nc(Nc2ccc(NC(=O)Nc3cccc(C(F)(F)F)c3)cc2)cc(N2CCCCC2)n1`, with 61%; and `CC(=O)N1CCC2(CC1)CC(=O)c1ccc(OCC(=O)Nc3cccc(C(F)(F)F)c3)cc1O2`, with 69%.
`CN[C@@H]1C[C@H]2O[C@@](C)([C@@H]1OC)n1c3ccccc3c3c4c(c5c6ccccc6n2c5c31)C(=O)NC4`: the inhibition was found to be 100%.

The target of the next assay is T1, CDK8/Cyclin C (Homo sapiens). Kind of assay: Inhibition of Alexa647 tracer binding to full length recombinant human His-tagged CDK8/Cyclin C expressed in baculovirus expression system at 5 uM preincubated for 20 mins followed by tracer addition measured after 60 mins by TR-FRET based Lanthascreen assay relative to control.
For the compound `CCOC(=O)Cc1ccc(NC(=O)NC(C(=O)N2CCc3ccccc32)c2ccccc2)cc1` (stereo not given), the inhibition was found to be 16%.
On the same count and under the same terms, then `Cc1ccc(-n2ncc(C(C)(C)C)c2NC(=O)CN(C)C(=O)Nc2ccccc2C)c(C)c1`, with 13%; and `O=C(NC1C2CS(=O)(=O)CC2NN1c1ccc(F)cc1)c1ccc(C(=O)c2ccccc2)cc1` (stereo not given), with 0%.
Turning to `CCOc1ccc(NC(=O)N2CCCC(c3cccc(C(=O)Nc4cccc(Cl)c4)c3)C2)cc1` (stereo not given), the inhibition amounted to 5%.
The same measure, in the same setting: then `Cc1ccc(Cl)cc1N1CCN(c2ncnc3sc(C(=O)O)c(C)c23)CC1`, with 75%; and `Cc1ccc(-c2nc(C)cc(OCC(=O)Nc3ccc(C#N)cc3)n2)cc1`, with -4%.
Same read-out and setting: then `CN(C)c1ccc(CNC(=O)C2CCN(c3ccc4nncn4n3)CC2)cc1`, with 0%; and `O=C(Nc1ccc(Cl)cc1)N1CCCC(c2cccc(C(=O)N3CCC4(CC3)OCCO4)c2)C1` (stereo not given), with -3%; and `Cc1noc2ncnc(N3CCC(C(=O)NCCCN4CCOCC4)CC3)c12`, with 1%.
The same measure, in the same setting: then `CC(=O)c1cccc(NC(=O)c2nnn(-c3ccc4noc(-c5ccccc5)c4c3)c2C)c1`, with 80%; and `CCC(=O)Nc1nc2cc(NC(=O)c3cc(-c4ccccc4)nc4c(C)cccc34)ccc2s1`, with 0%; and `CC(=O)c1ccc(NC(=O)COc2cc(C(F)(F)F)c3c(C)nn(-c4ccc(C)cc4)c3n2)cc1`, with -6%.
On to `CCOC(=O)c1c(C)oc2ncnc(NCCc3ccc(OCC)cc3)c12`, for which the inhibition was determined as 9%.
As for `Cc1ccc2sc(NNC(=O)c3ccc(S(=O)(=O)CN4CCc5ccccc5C4)cc3)nc2c1C`, the inhibition is 6%.
Take `O=C(Cc1ccccc1F)Nc1ccc2ncnc(N3CCCC3)c2c1`: the inhibition was 14%.
The same measure, in the same setting: then `CCNc1c(NC(=O)NCc2ccc(C)cc2)c(=O)oc2ccccc12`, with -3%; and `COc1ccc(CC(=O)N2CCN(c3ccc(NC(=O)Nc4cccc(C(F)(F)F)c4)cc3)CC2)cc1`, with 99%; and `CCCn1c(=O)oc2cc(NC(=O)Nc3cccc(C)c3)ccc21`, with 18%.
For the compound `CCCc1c(C(=O)Nc2ccc(NC(C)=O)cc2)nnn1-c1ccc2noc(-c3ccccc3)c2c1`, the inhibition was 27%.
On the same count and under the same terms, then `COc1ccc(CNC(=O)C2CCCN(c3cnc4nccnc4c3)C2)cc1` (stereo not given), with 3%; and `CNc1nccc(N2CCC(CC(=O)NCc3nc4ccccc4n3C)CC2)n1`, with 24%; and `Fc1ccc(-c2noc3ncnc(N4CCN(c5ccccn5)CC4)c23)cc1`, with 19%.
Still for that read-out and setting: then `COc1cccc(NC(=O)CSc2nc3ccc(NC(=O)Nc4cc(C)cc(C)c4)cc3s2)c1`, with 20%.
Regarding `CCn1c(=O)c(=O)n(CC(=O)NCc2ccccc2)c2ccccc21`, the inhibition was -2%.
Turning to `O=C(NCC1CCN(c2nsc(Cc3ccc(F)cc3)n2)CC1)Nc1ccc(Cl)c(Cl)c1`, the inhibition was 101%.
Consider `O=C(Nc1ccc2c(c1)OCCO2)c1cccc(Nc2cc(-c3ccc(F)cc3)ncn2)c1`, for which the inhibition came to 4%.
Still for that read-out and setting: then `CN1C(=O)c2ccccc2C(C(=O)Nc2ccc(S(=O)(=O)N3CCCCC3)cc2)C1c1cccs1` (stereo not given), with -6%.
Take `O=C(Nc1cccc2ccccc12)c1cccc(C2CSC(S(=O)(=O)N3CCOCC3)C2)c1` (stereo not given): the inhibition was -1%.
Still for that read-out and setting: then `O=C(Cc1ccc(NC(=O)N2CCSc3ncccc32)cc1)NCc1cccc(Cl)c1`, with 14%; and `CCc1ccc(NC(=O)c2c(O)c3ccccc3n(CC)c2=O)cc1`, with 46%.
As for `Cc1cc(C)c2c(n1)SCCN2C(=O)Nc1ccc(C(=O)NCc2cccc(Cl)c2)cc1`, the inhibition was found to be 0%.
Still for that read-out and setting: then `O=C(Nc1c(C(=O)c2ccccc2)oc2ccccc12)c1cc(-c2ccc3c(c2)OCCO3)on1`, with 18%; and `O=C(Nc1ccco1)NC1CCN(c2ncnc3c2CCC3)C1` (stereo not given), with 15%.
The same measure, in the same setting: then `CSc1cccc(NC(=O)NC2CCN(c3ccc(F)cc3)C2=O)c1` (stereo not given), with 2%; and `Cc1ccc(-c2nccc(Nc3cccc(C(=O)NCc4ccc(C(C)C)cc4)c3)n2)cc1`, with 2%; and `Cc1oc2ccccc2c1C(=O)CSc1nc(O)c2c(n1)NCN2`, with 14%.
On the same count and under the same terms, then `CCOC(=O)Cc1ccc(NC(=O)Nc2cc3c(cc2N2CCCC2)n(CC)c(=O)n3CC)cc1`, with 11%.
With `CC(=O)c1ccc(NC(=O)COc2cc(-c3ccccc3)nc3ccc(F)cc23)cc1`, the inhibition stood at 10%.
Take `Cc1ccc(Cl)cc1N1CCN(C(=O)c2noc3ncnc(N4CCCC4)c23)CC1`: the inhibition was 4%.
The same measure, in the same setting: then `O=C1Nc2ccc(F)cc2/C1=N\Nc1ccc(C(=O)N2CCCC2COc2ccc(F)cc2)cc1` (stereo not given), with 3%.
On to `Cc1ccc(N2Cc3c(ncnc3N3CCCC(C(=O)NCc4cccc(C(F)(F)F)c4)C3)N2)cc1` (stereo not given), for which the inhibition is -7%.
Still for that read-out and setting: then `Cc1ccc(NC(=O)CCc2nc3ccncc3[nH]2)cc1F`, with 7%; and `NNc1cc(N2CCN(c3ccccc3F)CC2)ncn1`, with 3%; and `COc1cc(NC(=O)N2CCN(c3cc(-c4ccc(C)cc4)ncn3)CC2)cc(OC)c1`, with -6%.
As for `Cc1nc(Nc2ccc(NC(=O)Nc3cccc(C(F)(F)F)c3)cc2)cc(N2CCCCC2)n1`, the inhibition was determined as 97%.
Consider `O=C(OCc1cc(=O)n2nc(C3CC3)sc2n1)c1ccc(NC(=O)c2cccc3ccccc23)cc1`, for which the inhibition is 0%.
For the compound `Fc1ccc(N2CCN(c3ncnc4sc5c(c34)CCCC5)CC2)cc1`, the inhibition came to 81%.
The same measure, in the same setting: then `COc1ccc(OC)c(NC(=O)Nc2ccc(Cn3cnc(-c4nc(-c5ccc(F)cc5)no4)c3)cc2)c1`, with 1%; and `COc1ccc(-n2nc(C(=O)NCC(=O)N3CCC(Cc4ccccc4)CC3)c3ccccc3c2=O)cc1`, with 0%; and `O=C(NC1CCCc2ccccc21)C1CCN(C2=CN3C(C=C2)NNC3c2ccc(Cl)cc2)CC1` (stereo not given), with -2%.
Still for that read-out and setting: then `CCc1ccc(-n2c(SCc3ccccc3C)nc3[nH]ncc3c2=O)cc1`, with 10%; and `CC(=O)N1CCC2(CC1)CC(=O)c1ccc(OCC(=O)Nc3cccc(C(F)(F)F)c3)cc1O2`, with 95%.
On the same count and under the same terms, then `Cc1cccc(N2CCN(c3ncnc4onc(C)c34)CC2)c1C`, with 28%; and `CN[C@@H]1C[C@H]2O[C@@](C)([C@@H]1OC)n1c3ccccc3c3c4c(c5c6ccccc6n2c5c31)C(=O)NC4`, with 99%.
As for `COc1ccc(CNC(=O)Cn2cnc3c(C(N)=O)nsc3c2=O)cc1`, the inhibition was 4%.
The same measure, in the same setting: then `Cc1c(C(=O)Nc2ccc3ccc(=O)oc3c2)nnn1-c1ccc2noc(-c3ccccc3)c2c1`, with 52%.

The next assay concerns the target CDK8/Cyclin C (Homo sapiens, UniProt P49336). The experiment in a line: Inhibition of Alexa647 tracer binding to full length recombinant human His-tagged CDK8/Cyclin C expressed in baculovirus expression system preincubated for 20 mins followed by tracer addition measured after 60 mins by TR-FRET based Lanthascreen assay.
Broadly, the IC50 is the point on the concentration scale where inhibition reaches its midpoint. As to `CC(=O)c1cccc(NC(=O)c2nnn(-c3ccc4noc(-c5ccccc5)c4c3)c2C)c1`, the half-inhibitory concentration (IC50) was 93 nM.
Still for that read-out and setting: then `COc1ccc(CC(=O)N2CCN(c3ccc(NC(=O)Nc4cccc(C(F)(F)F)c4)cc3)CC2)cc1`, with 36 nM.
With `O=C(Nc1cccc(Cl)c1)Nc1nnc(CC(=O)N2CCCC2)s1`, the IC50 turned out to be 183 nM.
The same measure, in the same setting: then `O=C(NCC1CCN(c2nsc(Cc3ccc(F)cc3)n2)CC1)Nc1ccc(Cl)c(Cl)c1`, with 6.5 nM; and `O=C(Nc1cccc(C(F)(F)F)c1)Nc1nnc(SCc2nc3ccccc3[nH]c2=O)s1`, with 9 nM.

Another assay addresses T1, CDK8/Cyclin C (Homo sapiens). Kind of assay: Inhibition of Alexa647 tracer binding to full length recombinant human His-tagged CDK8/Cyclin C expressed in baculovirus expression system at 2.5 uM preincubated for 20 mins followed by tracer addition measured after 60 mins by TR-FRET based Lanthascreen assay relative to control.
On to `Cc1c(C(=O)Nc2ccc(-n3cnnn3)cc2)nnn1-c1ccc2noc(-c3ccccc3)c2c1`, for which the inhibition is -2%.
For `CC(=O)Nc1ccc(NC(=O)c2ccc3noc(-c4ccc(Cl)cc4)c3c2)cc1`, the inhibition is 43%.
Same read-out and setting: then `CC(=O)Nc1ccc(NC(=O)c2nnn(-c3ccc4noc(-c5ccc(Cl)cc5)c4c3)c2C)cc1`, with 4%; and `Cc1c(C(=O)Nc2cccc(C(F)(F)F)c2)nnn1-c1ccc2noc(-c3ccc(Cl)cc3)c2c1`, with 19%.
Same read-out and setting: then `CC(=O)Nc1ccc(NC(=O)c2nnn(-c3ccc4noc(-c5ccccc5)c4c3)c2C)cc1`, with 59%.

A further assay shares this target. The experiment in a line: Inhibition of Alexa647 tracer binding to full length recombinant human His-tagged CDK8/Cyclin C expressed in baculovirus expression system at 1 uM preincubated for 20 mins followed by tracer addition measured after 60 mins by TR-FRET based Lanthascreen assay relative to control.
Regarding `CC(=O)Nc1ccc(NC(=O)Cc2csc(NC(=O)Nc3cccc(Cl)c3)n2)cc1`, the inhibition came out at 13%.
On the same count and under the same terms, then `CCNC(=O)c1cn(-c2ccc(SCC(=O)Nc3cccc(C(F)(F)F)c3)nn2)cn1`, with 16%.
Same read-out and setting: then `Cc1cc2nc(CSc3ccc(NC(=O)Nc4cccc(C(F)(F)F)c4)cc3)cc(=O)n2o1`, with 59%.
Still for that read-out and setting: then `O=C(CSc1ccc(N2CCCC(C(=O)NC3CC3)C2)nn1)Nc1cccc(C(F)(F)F)c1` (stereo not given), with 5%; and `O=C(Nc1cccc(Cl)c1)Nc1nnc(CC(=O)N2CCCC2)s1`, with 85%; and `CCc1nnc(NS(=O)(=O)c2ccc(NC(=O)Nc3ccc(Cl)c(Cl)c3)cc2)s1`, with 59%.
Take `Cc1nc(Nc2ccc(NC(=O)Nc3cccc(Cl)c3)cc2)cc(N2CCCCC2)n1`: the inhibition was determined as 14%.
The same measure, in the same setting: then `C=CCNC(=O)C1CC(=O)N(c2ccc(OCC(=O)Nc3cccc(C(F)(F)F)c3)cc2)C1` (stereo not given), with 3%; and `COc1ccc(C(=O)NCc2nnc(SCC(=O)Nc3cccc(C(F)(F)F)c3)o2)cc1OC`, with 4%; and `C=CCNC(=O)C1CCN(C(=O)Nc2ccc(NC(=O)Nc3cccc(F)c3)cc2)CC1`, with 8%.
As to `Cc1ccc(Nc2cc(Nc3ccc(NC(=O)Nc4cccc(F)c4)cc3)nc(C)n2)cc1`, the inhibition was determined as 5%.
As for `NC(=O)C1CC(=O)N(c2ccc(OCC(=O)Nc3cccc(C(F)(F)F)c3)cc2)C1` (stereo not given), the inhibition stood at 12%.
For `O=C(Nc1cccc(C(F)(F)F)c1)Nc1nnc(SCc2nc3ccccc3[nH]c2=O)s1`, the inhibition was determined as 100%.
Still for that read-out and setting: then `COc1ccc(C(=O)N2CCCN(c3ccc(NC(=O)Nc4cccc(C(F)(F)F)c4)cn3)CC2)cc1`, with 82%.
